# From US5141735A (priority 1990, dated 1992)
# Where two headings read alike, the source gives them in different places.
# Legend:
# viremia = settings: cited from earlier work
# viral p24 antigen = assay: Viral p24 antigen in culture media measured by ELISA; format: cell-based, HIV; settings: acutely infected CEM cells, FIG. 2
# Procedure: As an additional measure of anti-HIV activity, the amount of p24 antigen in the culture media was measured by ELISA (Abbott) according to the procedure described by the manufacturer. This measurement is an indication of HIV virus replication.
# HIV-TAT [1] = assay: Anti-HIV-TAT activity in CHO-derived cell lines constitutively expressing SeAP under HIV-LTR; format: cell-based; settings: FIG. 4
# Procedure: (§1) Compounds of formula I were also tested for anti-HIV-TAT activity with cell lines that constitutively express the SeAP gene under the control of the HIV-LTR. Cell lines 193c, 191F and 199F were derived from CHO cells (cell line of Chinese hamster ovary origin). Each line is of clonal origin and has the HIV-LTR/SeAP and the HIV-LTR/TAT sequences integrated in the cellular chromosome. One day after cells were plated (approximately 30% confluency), a compound of formula I in DMSO (0.05% final concentration) was added to the culture media at desired concentrations. The cells were washed and Compound A was replenished one day later. SeAP activity was assayed two days after the second addition of test compound. The cytotoxic effect of the compound was measured with a MTT assay, an art-recognized measurement of cytotoxicity. See Denigot et al., J. Immunol. Methods 89:271 (1986). This assay also confirmed the specific anti-TAT activity of applicants' compounds.
# [2] = test system: HIV-1-infected CEM-cells (strain N1T); assay: Anti-HIV effect: reduction of immunofluorescence-positive CEM cells (cell-associated viral antigens); format: cell-based
# Procedure: (§2) Compounds were tested directly for their anti-HIV effect. The assay protocols for the inhibition of HIV-cytopathic effect and the reduction of cell-associated viral antigens were modified from published procedures (Mitsuya, et al. P.N.A.S, USA 83:1911 (1986), and Hedenskog et al., J. Med. Virol. 19:325 (I986)).
# (§3) High titer virus stocks (HIV-1 NIT strain or HIV-2 uc-1 strain) were grown in CD4^+ CR10 cells in RMPI-1640 media (Gibco Laboratories) supplemented with 10% fetal calf serum and 0.1 mg/ml Gentamicin. The collected media were filtered through a 0.8 micron filter and virus isolates were concentrated 100 fold and stored at -80° C.
# (§4) CD4^+ CEM cells, propagated in the same medium, were incubated for 60 minutes at 37° C. with diluted stock virus at a multiplicity of infection equal to 1 (MOI=1, approximately 1 pg p24 or 4,000 viral particles per cell). Cells were washed three times with phosphate buffered saline and resuspended in the medium at 2×10^5 cells/ml. Various quantities of the test compound in DMSO, synthesized as described above were added. Four days after infection, the number of live cells were counted by trypan blue exclusion (Mitsuya, et al. Proc. Natl. Acad. Sci. 83:1911 (1986)). At the same time, aliquots of cells were fixed with acetone and stained with antibodies from AIDS patients, followed by a second staining with fluorescein-conjugated goat anti-human IgG (Cappel). Cells stained with the fluorescent antibody were counted using a fluorescence microscope and the results were expressed as percentage of the total number of cells counted (Hedenskog et al., J. Med. Virol 19:325 (1986)).
# *ID50 (μM) is the concentration of test compound that reduces the
# number of immunofluorescence positive cells by 50%.
# [3] = test system: Cell lines 193c, 191F and 199F; assay: Cytotoxicity by MTT assay in CHO-derived cell lines 193c, 191F and 199F; format: cell-based, Chinese hamster; settings: FIG. 4
# Procedure: The Y-axis is (1) the percent inhibition in TAT transactivation measured according to SeAP activity in culture media (discussed infra), and (2) a measurement of cytotoxicity based on an MTT assay. The MTT assay is a known tetrazolium-based assay which measures the viability of cells. The X-axis is the concentration of compound. The solid circles, diamonds and squares represent the three different cell lines identified at the bottom of the Figure.
# as §1, with “This assay also confirmed the specific anti-TAT activity of applicants' compounds.” left out
# HIV-TAT [4] = assay: Anti-HIV-TAT transfection assay (SeAP under HIV-LTR vs RSV-LTR in COS cells); format: cell-based; settings: 1-50 μM; HIV-LTR/SeAP relative to RSV-LTR/SeAP; added 24 hours post transfection; average of at least three tests
# Procedure: The compounds of the present invention were also tested for anti-HIV-TAT activity in an anti-TAT assay described in co-pending patent application U.S. Ser. No. 07/428,555, filed on Oct. 30, 1989, and hereby incorporated by reference. This assay comprises the following steps:
# (a) putting both the expression of the Secreted Alkaline Phosphatase (SeAP) gene and the viral transactivator TAT gene under the control of the HIV promoter LTR responsive to the action of the HIV transactivator TAT;
# (b) transfecting cultured mammalian cells with plasmids which contain the gene constructs of (a) above and cause cellular production of the transactivating factor TAT and SeAP;
# (c) adding the agent to be tested, here compounds of formula I; and
# (d) determining the amount of SeAP produced by measuring SeAP enzymatic activity, whereby inhibition of SeAP production correlates with the anti-TAT inhibition activity.
# In this assay, the inhibition of SeAP positively correlates with anti-TAT activity. The greater the ability of an agent to inhibit SeAP, the greater is its anti-TAT activity.
# Specifically, with respect to the results reported below, the anti-HIV-TAT assay was run as follows: […]
# determined by measuring the amount of alkaline phosphatase in […]
# calculated according to the formula: […]
# viral RNA = assay: Cell-associated viral RNA by RNA-RNA hybridization/reversible target capture; format: cell-based, HIV; settings: acutely infected CEM cells, FIG. 2
# Procedure: In addition, the viral RNA in infected cells was quantified with an RNA-RNA hybridization/reversible target capture procedure [Gillespie et al. Molecular and Cellular Probes, 2:73 (1989)]. Reagents were purchased from GeneTrack System (MA, USA) and assays were carried out according to the procedure described by the manufacturers. 2×10^5 live cells, determined by trypan blue exclusion, were used in each assay.
# HIV-1-infected CEM-cells = assay: Inhibition of HIV-cytopathic effect: live cell count by trypan blue exclusion; format: cell-based
# Procedure: as §2, §3, §4
# HIV = settings: body weight; cited from earlier work
# [5] = Human immunodeficiency virus 1, CCRF-CEM, 96 h, concentration that reduces the number of immunofluorescence positive cells by 50%, Table I, read-out: Anti-HIV ID50
smiles,measurement,setting,value
Cc1cn([C@H]2C[C@H](N=[N+]=[N-])[C@@H](CO)O2)c(=O)[nH]c1=O [AZT],elimination of viremia in patients,viremia,does not eliminate viremia in patients
same,drug resistance,viremia; patients,eventually the appearance of drug-resistant mutant viruses is evidenced
"CNC1=Nc2ccc(Cl)cc2C(c2ccc[nH]2)=NC1 [Compound A, 7-chloro-N-methyl-5-(1H-pyrrol-2-yl)-3H-1,4-benzodiazepin-2-amine]",amount of viral p24 antigen,viral p24 antigen,dramatically reduces
same,inhibition of SeAP expression under the control of the HIV-LTR promoter,HIV-TAT [1],significantly inhibits SeAP expression
same,IC50,"[2]; Human immunodeficiency virus 1, CCRF-CEM, 96 h, FIG. 1, HIV-1-infected CEM-cells (strain N1T), read-out: ID50 (the source's name)",500 nM
same,IC90,"[2]; Human immunodeficiency virus 1, CCRF-CEM, 96 h, FIG. 1, HIV-1-infected CEM-cells (strain N1T), read-out: ID90 (the source's name)",1000 nM
same,IC50,[2]; [5],500 to 1000 nM
same,percentage of cells that are immunofluorescence-positive following staining with HIV antibodies,"[2]; increasing amounts of compound, FIG. 1",decline in the percentage of cells that are immunofluorescence-positive
same,cytotoxic effect on the cells,[3],no cytotoxic effect on the cells
same,Anti-HIV-TAT Activity (% Inhibition),HIV-TAT [4],> 60%
same,amount of cell-associated viral RNA,viral RNA,dramatically reduces
same,survival rate for the HIV-infected cells,"HIV-1-infected CEM-cells; 5 μM, FIG. 1, HIV-1-infected CEM-cells",very close to that of uninfected cells
same,survival of HIV-infected cells with increasing concentrations,HIV-1-infected CEM-cells; FIG. 1,greater survival of HIV-infected cells
same,cell survival in comparison to AZT or ddC,"HIV-1-infected CEM-cells; acutely infected CEM cells, FIG. 2","at least similar, and at several compound concentrations, better, cell survival than AZT or ddC"
"NC1=Nc2ccc(Cl)cc2C(c2ccc[nH]2)=NC1 [NH2, 7-chloro-5-(1H-pyrrol-2-yl)-3H-1,4-benzodiazepin-2-amine]",IC50,[2]; [5],1000 nM
same,Anti-HIV-TAT Activity (% Inhibition),HIV-TAT [4],> 60%
Nc1ccn([C@H]2CC[C@@H](CO)O2)c(=O)n1 [ddC],virustatic dose range in most patients,HIV,5 to 250 µg/kg
